Results from patent US11147272B2, “Pyridone compounds and agricultural and horticultural fungicides comprising the same as active ingredients” (MITSUI CHEMICALS AGRO, INC., priority 2017, dated 2021).

Assays:
[1] = system: Blumeria graminis f. sp. hordei; assay: Test Example D: Powdery mildew on barley; settings: for Test D control value class: class of control value
Magnaporthe grisea = assay: whole plant or invertebrate; type: in vivo; settings: for Test A control value class: class of control value
Alternaia brassicicola = assay: Test Example C: Alternaria sooty spot on cabbage; type: in vivo
Excerpt: Seeds of a test plant (cabbage variety: Shikidori) were planted and cultivated until the cotyledons extended.
<Control Value> Control value=100{1−(n/3)}

Phytophthora infestans = assay: whole plant or invertebrate; type: in vivo; settings: for Test F control value class: class of control value
Plasmopara viticola = assay: Test Example G: Downy mildew on vine; settings: for Test G control value: 7 to 10 days after inoculation; for Test G control value class: Downy mildew on vine (Neomuscat), 2.5 ml/pot, assessed 7 to 10 days after inoculation
Botrytis cinerea = assay: Test Example B: Gray mold on tomato; settings: for Test B control value class: class of control value
[2] = system: Colletotrichum orbiculare; assay: Test Example H: Anthracnose on cucumber; settings: for Test H control value: 6 to 10 days after inoculation; for Test H control value class: Anthracnose on cucumber (Sagami Hanjiro), 2.5 ml/pot, assessed 6 to 10 days after inoculation
Puccinia recondita = assay: Test Example E: Brown rust on wheat; type: in vivo
[3] = Powdery mildew on barley, control value class
[4] = Blast on rice, control value class
[5] = Alternaria sooty spot on cabbage, control value class
[6] = Late blight on tomato, control value class
[7] = Downy mildew on vine, 250 ppm spray
[8] = Gray mold on tomato, control value class
[9] = Anthracnose on cucumber, 250 ppm spray
[10] = Brown rust on wheat, control value class
[11] = Alternaria sooty spot on cabbage, class of control value
[12] = Brown rust on wheat, class of control value
[13] = 250 ppm drug solution sprayed on test plant
[14] = 250 ppm drug solution sprayed (2.5 ml/pot), grape Neomuscat
[15] = 250 ppm drug solution sprayed (2.5 ml/pot), cucumber Sagami Hanjiro

Row | SMILES | Test D control value [1, 3] | Test A control value (Magnaporthe grisea; [4]) | Test C control value (Alternaia brassicicola; [5]) | Test F control value (Phytophthora infestans; [6]) | Test G control value (Plasmopara viticola; [7]) | Test B control value (Botrytis cinerea; [8]) | Test H control value [2, 9] | Test E control value (Puccinia recondita; [10]) | Test D control value class ([1]; Powdery mildew on barley) | Test A control value class (Magnaporthe grisea; Blast on rice) | Test C control value class (Alternaia brassicicola; [11]) | Test F control value class (Phytophthora infestans; Late blight on tomato) | Test G control value class (Plasmopara viticola; 250 ppm spray) | Test B control value class (Botrytis cinerea; Gray mold on tomato) | Test H control value class ([2]; 250 ppm spray) | Test E control value class (Puccinia recondita; [12]) | further results
1 | CCn1c(-c2ccc(F)cc2)c(C=O)cc(Cl)c1=O [compound 290] | L (50% or less control value) | L (50% or less control value) | H (more than 50% control value) | H (more than 50% control value) | L (50% or less control value) | L (50% or less control value) | L (50% or less control value) | L (50% or less control value) | – | – | – | – | – | – | – | – | –
2 | CCn1c(-c2ccc(OCOC)cc2F)c(CC(C)C)cc(Cl)c1=O [compound 122] | – | – | – | – | – | – | – | – | H (more than 50% control value) | H (more than 50% control value) | H (more than 50% control value) | L (50% or less control value) | H (more than 50% control value) | H (more than 50% control value) | H (more than 50% control value) | H (more than 50% control value) | –
3 | CCn1c(-c2ccc(OC)cc2Cl)c(CC(C)C)cc(Cl)c1=O [compound 239] | H (more than 50% control value) | H (more than 50% control value) | H (more than 50% control value) | L (50% or less control value) | L (50% or less control value) | H (more than 50% control value) | H (more than 50% control value) | H (more than 50% control value) | – | – | – | – | – | – | – | – | –
4 | CCn1c(-c2ccc(F)cc2Cl)c(C=O)cc(Cl)c1=O [compound 294] | L (50% or less control value) | L (50% or less control value) | H (more than 50% control value) | L (50% or less control value) | H (more than 50% control value) | H (more than 50% control value) | L (50% or less control value) | H (more than 50% control value) | – | – | – | – | – | – | – | – | –
5 | CCC(=O)c1ccc(=O)n(CC)c1-c1c(F)cc(F)cc1F [compound 480] | – | – | – | – | – | – | – | – | – | – | – | – | – | – | – | – | Test D control value [1, 13]: H (more than 50% control value); Test A control value (Magnaporthe grisea; [13]): L (50% or less control value); Test C control value (Alternaia brassicicola; [13]): L (50% or less control value); Test F control value (Phytophthora infestans; [13]): L (50% or less control value); Test G control value (Plasmopara viticola; [14]): L (50% or less control value); Test B control value (Botrytis cinerea; [13]): H (more than 50% control value); Test H control value [2, 15]: H (more than 50% control value); Test E control value (Puccinia recondita; [13]): L (50% or less control value)
6 | CCn1c(-c2c(F)cc(F)cc2F)c(C(C)O)cc(Cl)c1=O (stereo not shown) [compound 514] | – | – | – | – | – | – | – | – | – | – | – | – | – | – | – | – | Test D control value [1, 13]: H (more than 50% control value); Test A control value (Magnaporthe grisea; [13]): L (50% or less control value); Test C control value (Alternaia brassicicola; [13]): H (more than 50% control value); Test F control value (Phytophthora infestans; [13]): L (50% or less control value); Test G control value (Plasmopara viticola; [14]): H (more than 50% control value); Test B control value (Botrytis cinerea; [13]): H (more than 50% control value); Test H control value [2, 15]: H (more than 50% control value); Test E control value (Puccinia recondita; [13]): H (more than 50% control value)
7 | CCn1c(-c2c(F)cc(OC)cc2F)c(CC(C)C)cc(Br)c1=O [compound 43] | – | – | – | – | – | – | – | – | H (more than 50% control value) | H (more than 50% control value) | H (more than 50% control value) | L (50% or less control value) | H (more than 50% control value) | H (more than 50% control value) | H (more than 50% control value) | H (more than 50% control value) | –
8 | CCC(O)c1cc(Cl)c(=O)n(CC)c1-c1c(F)cccc1F (stereo not shown) [Compound No. 24, 3-chloro-6-(2,6-difluorophenyl)-1-ethyl-5-(1-hydroxypropyl)pyridin-2(1H)-one] | – | – | – | – | – | – | – | – | – | – | – | – | – | – | – | – | pest or weed control at 250 µg/mL ([1]; Blumeria graminis, in Hordeum vulgare, topical, read-out: Test D control value class): > 50%; pest or weed control at 250 µg/mL (Magnaporthe grisea; Pyricularia oryzae, in Oryza sativa, read-out: Test A control value class): > 50%; pest or weed control at 250 µg/mL (Alternaia brassicicola; Brassica oleracea, topical, Alternaria sooty spot on cabbage, class of control value, read-out: Test C control value class): > 50%; pest or weed control at 250 µg/mL (Phytophthora infestans; Phytophthora infestans, in Solanum lycopersicum, topical, read-out: Test F control value class): < 50%; pest or weed control at 250 ppm (Plasmopara viticola; Plasmopara viticola, topical, read-out: Test G control value class): < 50%; pest or weed control at 250 µg/mL (Botrytis cinerea; Botrytis cinerea, in Solanum lycopersicum, topical, read-out: Test B control value class): > 50%; pest or weed control at 250 ppm ([2]; Colletotrichum orbiculare, in Cucumis sativus, topical, read-out: Test H control value class): > 50%; pest or weed control at 250 µg/mL (Puccinia recondita; Puccinia recondita, topical, Brown rust on wheat, class of control value, read-out: Test E control value class): > 50%
9 | CCc1ccc(=O)n(CC)c1-c1ccc(OC)cc1C [compound 353] | H (more than 50% control value) | L (50% or less control value) | L (50% or less control value) | L (50% or less control value) | L (50% or less control value) | L (50% or less control value) | L (50% or less control value) | H (more than 50% control value) | – | – | – | – | – | – | – | – | –
10 | CCn1c(-c2c(O)cccc2F)c(CC(C)C)cc(Cl)c1=O [compound 101] | – | – | – | – | – | – | – | – | L (50% or less control value) | L (50% or less control value) | L (50% or less control value) | H (more than 50% control value) | H (more than 50% control value) | H (more than 50% control value) | L (50% or less control value) | H (more than 50% control value) | –
11 | CCn1c(-c2c(F)cc(OC)cc2F)c(C(C)(O)C(C)(C)C)cc(Cl)c1=O (racemic) [compound 180] | – | – | – | – | – | – | – | – | L (50% or less control value) | H (more than 50% control value) | H (more than 50% control value) | L (50% or less control value) | L (50% or less control value) | H (more than 50% control value) | L (50% or less control value) | L (50% or less control value) | –
